Data set [1] in a line: Inhibition of TPA-induced EBV early antigen activation in human Raji cells relative to TPA. It counts as cell-based, human gammaherpesvirus 4.
A further data set concerns HL-60. In words: Cytotoxicity against human HL60 cells after 48 hrs by MTT assay. It counts as functional, cell-based. Particulars: HL-60, 48 h. (In general: Tetrazolium assays rely on reduction of a dye to a coloured formazan, in cell work by metabolically active cells.)
A short description of data set [2]: Cytotoxicity against human Raji cells assessed as cell viability at 1000 molar ratio. It counts as cell-based. Particulars: read-out: INH.
For data set [3], the system named is Raji. Kind of data set: Inhibition of TPA-induced EBV early antigen activation in human Raji cells at 1000 molar relative to TPA; values are per cent of control. The settings on record: human gammaherpesvirus 4.
Data set [4] has as its system Raji. In words: Inhibition of TPA-induced EBV early antigen activation in human Raji cells at 10 molar ratio relative to TPA; values are per cent of control. Particulars: human gammaherpesvirus 4.
The test system of data set [5] is Raji. Kind of data set: Inhibition of TPA-induced EBV early antigen activation in human Raji cells at 500 molar relative to TPA; values are per cent of control. Particulars: human gammaherpesvirus 4.
The nature of data set [6]: Cytotoxicity against human CRL1579 cells after 48 hrs by MTT assay. Type of data set: functional, cell-based.
Data set [7] deals with Raji. In words: Inhibition of TPA-induced EBV early antigen activation in human Raji cells at 100 molar relative to TPA; values are per cent of control. The settings on record: human gammaherpesvirus 4.
The species entered for data set [8] is Mus musculus. In words: Inhibition of DMBA-induced/TPA-promoted carcinogenesis in ICR mouse assessed as reduction of skin papillomas measured after 20 weeks relative to TPA. It counts as functional.
Data set [9] is filed under the species Mus musculus. Kind of data set: Inhibition of DMBA-induced/TPA-promoted carcinogenesis in ICR mouse assessed as reduction of skin papillomas measured after 11 weeks relative to TPA. It counts as functional.

Each structure is given as a SMILES string.

For the compound `C=C(CC[C@@H](C(=O)O)[C@H]1[C@H](O)C[C@@]2(C)C3=C(CC[C@]12C)[C@@]1(C)CCC(=O)C(C)(C)[C@@H]1CC3)C(C)(C)O`, the values for the IC50 (in data set [1]; with HL-60; in data set [6]) were 299 molar ratio, 84.7 µM and 28.7 µM, respectively. Moreover, the viability at 1000 molar ratio in data set [2] turned out to be 70%. Also, the level, % of control worked out at 0% in the data set on Raji [3], 96.1% with Raji [4], 36.1% in the data set on Raji [5] and 72.2% in the data set on Raji [7].
As to `C=C(CC[C@@H](C(=O)O)[C@H]1[C@H](O)C[C@@]2(C)C3=C(CC[C@]12C)[C@@]1(C)CCC(=O)C(C)(C)[C@@H]1CC3)C(C)C`, the IC50 in data set [1] was 348 molar ratio; with HL-60 it was > 100 µM; in data set [6], > 100 µM. Further, the viability at 1000 molar ratio in data set [2] turned out to be 70%. For the same compound, the level, % of control in the data set with Raji [3] was 2.2%; in the data set on Raji [4] it was 96.4%; in the data set on Raji [5], 28.3%; in the data set with Raji [7], 70.3%.
For the compound `C=C(CC[C@@H](C(=O)O)[C@H]1[C@H](O)C[C@@]2(C)[C@]34C=C[C@@]5(OO3)C(C)(C)[C@@H](O)CC[C@]5(C)C4=CC[C@]12C)C(C)C`, the IC50 (in the data set on HL-60; in data set [6]) was > 100 µM throughout.
As for `C=C(C)[C@@H]1CC=C2C(=CC[C@]3(C)[C@@H]([C@@H](CCC(=C)C(C)(O)CO)C(=O)O)[C@H](O)C[C@@]23C)[C@@]1(C)CCC(=O)OC` (stereo partly specified), the IC50 was 187 molar ratio in [1], 94.6 µM in the data set on HL-60 and 98.4 µM in [6]. Moreover, the viability at 1000 molar ratio in data set [2] was 70%. Also, the level, % of control stood at 0% with Raji [3], 80.2% with Raji [4], 14.1% in the data set on Raji [5] and 55.3% in the data set with Raji [7].
On to `C=C(CC[C@@H](C(=O)O)[C@H]1[C@H](O)C[C@@]2(C)C3=CC[C@H]4C(C)(C)[C@H](O)CC[C@]4(C)C3=CC[C@]12C)C(C)(C)O`, for which the IC50 in the data set with HL-60 turned out to be 29.4 µM; in [6], 84 µM.
As for `CC(C)(O)c1ccc2c(c1)C(=O)C[C@H]1[C@](C)(C(=O)O)CCC[C@]21C`, the IC50 was 238 molar ratio in data set [1], > 100 µM with HL-60 and > 100 µM in data set [6]. Moreover, the viability at 1000 molar ratio in [2] is 60%. In addition, the level, % of control in the data set on Raji [3] amounted to 0%; with Raji [4], 93.4%; in the data set on Raji [5] it was 19.5%; in the data set with Raji [7], 69.1%.
With `C=C(CC[C@@H](C(=O)O)[C@H]1[C@H](O)C[C@@]2(C)C3=C(CC[C@]12C)[C@@](C)(CCC(=O)O)[C@H](C(=C)C)C=C3)C(C)C` [6,7-DEHYDROPORICOIC ACID H], the IC50 was 193 molar ratio in [1], > 100 µM with HL-60 and > 100 µM in data set [6]. In addition, in [2], the viability at 1000 molar ratio turned out to be 70%. The level, % of control in the data set on Raji [3] was 0%; with Raji [4] it was 80.9%; in the data set with Raji [5], 15.2%; in the data set with Raji [7] it was 56%.
Take `C=C(C)[C@@H]1CC=C2C(=CC[C@]3(C)[C@@H]([C@@H](CCC(=C)C(C)(C)O)C(=O)O)CC[C@@]23C)[C@@]1(C)CCC(=O)O` [25-HYDROXYPORICOIC ACID C]: the IC50 in data set [1] was 201 molar ratio; in the data set with HL-60 it was 30.8 µM; in data set [6], 92.7 µM. In addition, in [2], the viability at 1000 molar ratio was determined as 70%. Besides, the level, % of control in the data set with Raji [3] was 0%; with Raji [4] it was 83.1%; in the data set with Raji [5] it was 16.2%; in the data set with Raji [7], 57.1%.
On to `C=C(C)[C@@H]1CC=C2C(=CC[C@]3(C)[C@@H]([C@@H](CCC(=C)C(C)(C)OC)C(=O)O)[C@H](O)C[C@@]23C)[C@@]1(C)CCC(=O)O` [25-METHOXYPORICOIC ACID A], for which the figures for the IC50 (in data set [1]; in the data set on HL-60; in data set [6]) were 268 molar ratio, > 100 µM and > 100 µM, respectively. Also, in [2], the viability at 1000 molar ratio is 70%. Moreover, the “inhibition (INH)” value in the data set filed under Mus musculus [8] is on record as 80%; in the data set listed under Mus musculus [9], 20%. In addition, the level, % of control is 0% in the data set on Raji [3], 84.4% in the data set with Raji [4], 17.8% in the data set on Raji [5] and 58.2% in the data set on Raji [7].
In [1], `CC1=C(/C=C/C(C)=C/C=C/C(C)=C/C=C/C=C(C)/C=C/C=C(C)/C=C/C2=C(C)CCCC2(C)C)C(C)(C)CCC1` [BETA CAROTENE] yielded an IC50 of 397 molar ratio. Besides, the level, % of control with Raji [3] came to 8.6%; with Raji [4], 100%; in the data set with Raji [5], 34.2%; in the data set with Raji [7] it was 82.1%.
As to `C=C(CC[C@@H](C(=O)O)[C@H]1[C@H](O)C[C@@]2(C)C3=CC[C@@H](C(=C)C)[C@](C)(CCC(=O)OC)C3=CC[C@]12C)C(C)C` [PORICOIC ACID AM], the figures for the IC50 (in the data set on HL-60; in [6]) were 15.9 µM and 88.9 µM, respectively.
With `C=C(CC[C@@H](C(=O)O)[C@H]1[C@H](O)C[C@@]2(C)C3=CC[C@@H](C(=C)C)[C@](C)(CCC(=O)O)C3=CC[C@]12C)C(C)C` [PORICOIC ACID A], the IC50 is 38 µM in the data set on HL-60 and > 100 µM in [6].
Regarding `C=C(C)[C@@H]1CC=C2C(=CC[C@]3(C)[C@@H]([C@@H](CCC=C(C)C)C(=O)O)[C@H](O)C[C@@]23C)[C@@]1(C)CCC(=O)O` [PORICOIC ACID B], the IC50 (with HL-60; in data set [6]) was > 100 µM each time.
As for `C=C(C)[C@@H]1CC=C2C(=CC[C@]3(C)[C@@H]([C@@H](CCC(=C)C(C)(C)O)C(=O)O)[C@H](O)C[C@@]23C)[C@@]1(C)CCC(=O)OC` [PORICOIC ACID DM], the IC50 (in the data set on HL-60; in data set [6]) was > 100 µM each time.
In data set [1], `C=C(C)[C@@H]1CCC2=C(CC[C@]3(C)[C@@H]([C@@H](CCC=C(C)C)C(=O)O)[C@H](O)C[C@@]23C)[C@@]1(C)CCC(=O)OC` [PORICOIC ACID GM] showed an IC50 of 216 molar ratio. Also, in data set [2], the viability at 1000 molar ratio worked out at 70%. The level, % of control came to 0% in the data set with Raji [3], 86.4% in the data set on Raji [4], 19.9% with Raji [5] and 60.1% in the data set on Raji [7].
Consider `C=C(C)[C@@H]1CCC2=C(CC[C@]3(C)[C@@H]([C@@H](CCC=C(C)C)C(=O)O)[C@H](O)C[C@@]23C)[C@@]1(C)CCC(=O)O` [PORICOIC ACID G], for which the IC50 was 32.6 µM in the data set on HL-60 and > 100 µM in data set [6].
Take `C=C(CC[C@@H](C(=O)O)[C@H]1[C@H](O)C[C@@]2(C)C3=C(CC[C@]12C)[C@@](C)(CCC(=O)OC)[C@H](C(=C)C)CC3)C(C)C` [PORICOIC ACID HM]: the IC50 in data set [1] worked out at 219 molar ratio. Also, the viability at 1000 molar ratio in data set [2] worked out at 70%. In addition, the level, % of control with Raji [3] is 0%; in the data set on Raji [4], 87.5%; with Raji [5] it was 20.3%; with Raji [7], 61.3%.
Consider `C=C(CC[C@@H](C(=O)O)[C@H]1[C@H](O)C[C@@]2(C)C3=C(CC[C@]12C)[C@@](C)(CCC(=O)O)[C@H](C(=C)C)CC3)C(C)C` [PORICOIC ACID H], for which the IC50 in the data set on HL-60 is 28.4 µM; in data set [6], > 100 µM.

For the origin of these results see ChEMBL document CHEMBL1154271, “Anti-tumor-promoting effects of 25-methoxyporicoic acid A and other triterpene acids from Poria cocos” (J Nat Prod, 2009).
